Data published in US7094533B1, “Therapeutic and diagnostic applications of prostatic acid phosphatase in prostate cancer” (Board of Regents of the University of Nebraska, priority 1999, dated 2006).
Like-named read-outs stand apart in the source and are kept apart here.

Columns and labels:
[1] = system: DU145 cells; conditions: counted at day 3 (FIG. 1A)
Source text: (§1) Cell Cultures. Human prostate carcinoma cell lines, LNCaP-FGC (LNCaP) (Horoszewicz et al., 1983, Cancer Res. 43:1809–1818), DU145 (Stone et al., 1978, Int. J. Cancer 21:274–281), and PC-3 (Kaighn et al., 1979, Invest. Urol. 17:16–23), were originally obtained from the American Type Culture Collection (Rockville, Md.) and routinely maintained in RPMI 1640 medium supplemented with 7% FBS, 1% glutamine, and 0.5% gentamicin, as described previously (Lin et al., 1992, Cancer Res. 52, 4600–4607; Lin et al., 1986, Mol. Cell. Biol. 6:4753–4757). Cultured cells were fed twice per week and trypsinized once per week; one passage equals one trypsinization. […] For experiments, LNCaP cells that had passage numbers less than 33 were designated as clone 33, passage numbers over 80 as clone 81, and passage numbers between 34 and 80 as clone 51. To investigate basal growth rates of different subcloned cells, cells were seeded and maintained in steroid-reduced medium containing 5% heat-inactivated dialyzed FBS. To quantify cell growth, attached cells were trypsinized and neutralized with medium-FBS. The total cell number including the suspended and attached cells were counted using a hemocytometer via trypan blue exclusion or a Coulter Counter Z1 model (Lin et al., 1992, Cancer Res. 52, 4600–4607; Lin et al., 1994, Differentiation 57:143–149).
(§2) Androgen Effect on Cell Growth, Protein Tyrosine Phosphorylation, PSA, and PAcP Expression. Cells were plated at a density of approximately 1×10^4 cells/cm^2 in RPMI 1640 medium containing 7% FBS and maintained in a 37° C. incubator (5% CO^2) for 3 days (Lin et al., 1992, Cancer Res. 52, 4600–4607; Lin et al., 1993, Arch. Biochem. Biophys. 300:384–390; both are incorporated by reference herein). To investigate androgen effect on cell growth and protein tyrosine phosphorylation, cells that had been maintained in the steroid-reduced medium containing 5% heat-inactivated dialyzed FBS for an additional 48 h were grown in fresh steroid-reduced medium in the presence or absence of different concentrations of DHT. After a time period specified in each set of experiments, cells were harvested and then counted using a hemocytometer or Coulter Counter (Lin et al., 1992, Cancer Res. 52, 4600–4607; Lin et al., 1994, Differentiation 57:143–149; incorporated by reference herein). The cell number in the control well was defined as ratio 1.0.
(§3) In FIG. 1A, the total cell number was counted at day 3 for PC-3 and DU145 cells and at day 4 fro LNCaP cells.

[2] = system: PC-3 cells; conditions: counted at day 3 (FIG. 1A)
Source text: as §1, §2, §3

[3] = system: clone 33 LNCaP cells; conditions: 10 nM DHT
Source text: as §1, §2, §3

[4] = system: clone 81 LNCaP cells; conditions: 10 nM DHT, 7-day treatment, clone 81 LNCaP (FIG. 2A)
Source text: as §1, §2, §3

[5] = system: LNCaP-23 and LNCaP-34 cells; conditions: LNCaP-23 and LNCaP-34 versus clone 81 parent and LNCaP-CMV cells, different concentrations of DHT (FIG. 5D)
Experimental: as §2

[6] = system: PC-411 and PC-416 cells; conditions: p<0.05 (FIG. 6D)
Experimental: as §2

[7] = system: PSA mRNA; conditions: each clone of LNCaP cells (33, 51, 81), 10 nM DHT, 3 days
Source text: (§4) Cells were harvested for preparation of total RNA and total cell lysate proteins as described below.

[8] = system: cellular PAcP; conditions: clone 33 LNCaP cells exposed to DHT (FIG. 3B)
Source text: as §4
Western Blot Analysis. Subconfluent cells were trypsinized, pelleted, and rinsed with Hepes-buffered saline, pH 7.0, and then lysed in a hypotonic cell lysis buffer containing various protease inhibitors as described above. […] The relative levels of AR and PAcP protein were semiquantified by densitometric analyses of autoradiograms with different exposure time periods utilizing Molecular Dynamics equipment and software program.

[9] = system: PAcP mRNA in LNCaP cells
Source text: Nuclear run-on experiment. […] Transcription was continued in the presence of “P-labeled UTP (Amersham. Life Science Inc.). The radioactive RNA was hybridized with a slot blot membrane containing the full length of PAcP cDNA.

[10] = system: AR in PC-3 cells; assay: Chloramphenicol acetyltransferase assay (pMSG-CAT reporter); assay type: cell-based, human; conditions: 10 nM R1881, 24 h, PC-3 cell lysate proteins (FIG. 6A)
Source text: (§5) Chloramphenicol Acetyltransferase Assay.

[11] = system: DU 145 cells; assay: as above; assay type: cell-based, human; conditions: 10 nM R1881, DU 145 cells
Source text: as §5

[12] = system: human AR cDNA-transfected PC-3 cells; conditions: 10 nM R1881, 24 h, human AR cDNA-transfected PC-3 cells (FIG. 6A)
Experimental: Chloramphenicol Acetyltransferase Assay. Cells that had been grown in medium containing 5% charcoal-stripped FBS were transfected with the pMSG-CAT reporter plasmid, pSG5 vector DNA, or pSG5-AR plasmid by the liposome-mediated transfection method (Lin et al., 1992, Cancer Res. 52, 4600–4607; Felgner et al., 1987, Proc. Natl. Acad. Sci. U.S.A. 84:7413–7417). After a 24-h incubation period, cells were maintained in medium supplemented with 5% steroid-reduced FBS in the presence or absence of 10 nM R1881, a synthetic androgen, in ethanol (0.01%, v/v). After an additional 24-h incubation, CAT assays were performed as described (Felgner et al., 1987, Proc. Natl. Acad. Sci. U.S.A. 84:7413–7417; Moszowicz et al., 1993, Mol. Endocrinol. 7:1861–869).

[13] = target: T1, PAcP (Homo sapiens, UniProt P15309); conditions: 20 nM okadaic acid; cited from earlier work
T1 sequence (P15309 33-386): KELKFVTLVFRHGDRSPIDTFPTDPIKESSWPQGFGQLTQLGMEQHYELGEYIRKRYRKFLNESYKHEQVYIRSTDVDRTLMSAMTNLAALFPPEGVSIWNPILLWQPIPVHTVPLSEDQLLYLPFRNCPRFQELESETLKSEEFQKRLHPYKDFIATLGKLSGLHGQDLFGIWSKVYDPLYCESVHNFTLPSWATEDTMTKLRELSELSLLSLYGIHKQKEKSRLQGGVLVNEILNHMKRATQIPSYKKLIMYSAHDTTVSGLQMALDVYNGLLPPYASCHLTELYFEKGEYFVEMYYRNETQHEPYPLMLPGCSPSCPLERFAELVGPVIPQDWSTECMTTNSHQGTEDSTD

[14] = system: PAcP cDNA transfected C-81 LNCaP cells; assay: Anchorage-independent growth, soft agar analysis; assay type: cell-based, human; conditions: LNCaP-23, -28, -40 cells, colonies after 3 weeks (FIG. 9B)
Experimental: (§6) Anchorage-independent growth. Anchorage-independent growth of prostate cancer cells was performed by soft agar analysis (Weiner et al., 1989, Oncogene 4:1175–1183; Horoszewicz et al., 1983, Cancer Res. 43:1809–1818). Briefly, cells were seeded in 0.25% agarose on the top of a base layer containing 0.6% agarose. One day after seeding, cell clumps containing more than one cell were excluded and the colony number was counted after 3 weeks of incubation.

[15] = system: PC-416 cells; assay: Anchorage-independent growth, soft agar analysis; assay type: cell-based, human; conditions: PC-416 cells (FIG. 9C)
Experimental: as §6

[16] = system: LNCaP xenograft tumors; assay: Subcutaneous xenograft tumors in male athymic mice, LNCaP cells; assay type: in vivo; conditions: 28 days after inoculation (C-81 LNCaP 241)
Experimental: (§7) Xenograft animal experiments. The protocol for the subcutaneous xenograft animal model in athymic mice was essentially as that described in Lin et al., 1995 (The Prostate 26:194–204). For comparing the tumorigenicity of different LNCaP cells, 1×10^6 cells were suspended in 0.1 ml medium, mixed with 0.1 ml matrigel (Collaborative Biomedical, MA), and injected subcutaneously in the hind flank of male mice. For examining the hormone effect on tumor development, 5×10^5 cells in matrigel were injected into female mice. For the PC-3 cell system, 1×10^6 cells in 0.2 ml medium suspension without matrigel were injected into male mice. The animal maintenance and the tumor measurement were followed the NIH guidelines and the specific guideline by the University of Nebraska Medical Center as previously described (Lin et al., 1995, The Prostate 26:194–204).

[17] = system: LNCaP xenograft tumors; assay: Subcutaneous xenograft tumors in female athymic mice, LNCaP cells; assay type: in vivo; conditions: for mice that did not develop any tumor: female, after 100 days of inoculation; for averaged tumor size: 70 days
Experimental: as §7

[18] = system: PC-3 xenograft tumors; assay: Subcutaneous xenograft tumors in male athymic mice, PC-3 cells; assay type: in vivo; conditions: for xenograft tumor size as % of PC-3 xenograft tumors: 42 days; for xenograft tumor size: 42 days after cell injection (PC-3 612 mm^3)
Experimental: as §7

C[C@]12CCC(=O)C[C@@H]1CC[C@@H]1[C@@H]2CC[C@]2(C)[C@@H](O)CC[C@@H]12 [DHT, 5α-dihydrotestosterone]
effect on cell growth [1]: did not have a significant effect | effect on cell growth [2]: did not have a significant effect | stimulatory effect on cell growth ([3]; 7-day treatment, clone 33 LNCaP (FIG. 2A)): ≤ 2.5 fold | stimulation of cell growth ([3]; clone 33 LNCaP, steroid-reduced medium, counted at day 4 (FIG. 1A)): 1.5–2 fold | stimulation of cell growth [4]: ~20% | degree of androgen stimulation of cell growth [5]: enhanced | effect on cell growth [6]: stimulated significantly | induction of PSA mRNA, normalized to GAPDH [7]: 2–3 fold | cellular PAcP level [8]: diminished level | transcription of PAcP mRNA ([9]; high density LNCaP cells (FIG. 11B)): suppressed | transcription of PAcP mRNA ([9]; low density LNCaP cells (FIG. 11B)): stimulated

C[C@]1(O)CC[C@H]2[C@@H]3CCC4=CC(=O)CCC4=C3C=C[C@@]21C [R1881]
stimulation of the CAT activity [10]: ~2 fold | effect on the CAT activity [11]: did not have an effect | stimulation of the CAT activity [12]: ~9 fold

C=C1[C@@H](O)[C@@H]2O[C@]3(CC[C@H](/C=C/[C@@H](C)[C@@H]4CC(C)=C[C@@]5(O[C@H](C[C@@](C)(O)C(=O)O)CC[C@H]5O)O4)O3)CC[C@H]2O[C@@H]1[C@@H](O)C[C@H](C)[C@H]1O[C@@]2(CCCCO2)CC[C@H]1C [okadaic acid]
effect on PAcP activity [13]: not affected

B1: cellular PAcP: cellular form of human prostatic acid phosphatase, expressed from full-length human PAcP cDNA driven by a pCMV-neo expression vector (protein)
chain: KELKFVTLVFRHGDRSPIDTFPTDPIKESSWPQGFGQLTQLGMEQHYELGEYIRKRYRKFLNESYKHEQVYIRSTDVDRTLMSAMTNLAALFPPEGVSIWNPILLWQPIPVHTVPLSEDQLLYLPFRNCPRFQELESETLKSEEFQKRLHPYKDFIATLGKLSGLHGQDLFGIWSKVYDPLYCESVHNFTLPSWATEDTMTKLRELSELSLLSLYGIHKQKEKSRLQGGVLVNEILNHMKRATQIPSYKKLIMYSAHDTTVSGLQMALDVYNGLLPPYASCHLTELYFEKGEYFVEMYYRNETQHEPYPLMLPGCSPSCPLERFAELVGPVIPQDWSTECMTTNSHQGTEDSTD
decrease of anchorage-independent growth [14]: more than 100 folds | anchorage-independent growth [15]: diminished | averaged tumor size ([16]; LN-23 cells): 143 mm^3 | averaged tumor size ([16]; LN-34 cells): 115 mm^3 | tumor induction ([17]; LN-23 and LN-40 cells, female mice, 35 days after inoculation (clone-81 782 mm^3)): no detectable tumor | mice that did not develop any tumor ([17]; LN-23 mice): 20% | averaged tumor size ([17]; LN-23 tumors, female mice): 347 mm^3 | mice that did not develop any tumor ([17]; LN-40 mice): 50% | averaged tumor size ([17]; LN-40 tumors, female mice): 214 mm^3 | xenograft tumor size as % of PC-3 xenograft tumors ([18]; PC-412, male mice): about 38% | xenograft tumor size ([18]; PC-412, male mice): 233 mm^3 | xenograft tumor size as % of PC-3 xenograft tumors ([18]; PC-416, male mice): ~23% | xenograft tumor size ([18]; PC-416, male mice): 138 mm^3
